Laboratory results: article PMC11673721 (Biomolecules, 2024)

Tests used:
[1] = molecular target: T1, DtolTA (PLP-dependent transaminase of fold type IV) (Desulfobacula toluolica, UniProt K0NPP0); assay: half-reaction (deamination) kinetics, absorbance at […] nm; kmax/KD^app; assay type: biochemical; parameters: gene dat; (His)6-tagged DtolTA
T1 sequence (K0NPP0 1-286): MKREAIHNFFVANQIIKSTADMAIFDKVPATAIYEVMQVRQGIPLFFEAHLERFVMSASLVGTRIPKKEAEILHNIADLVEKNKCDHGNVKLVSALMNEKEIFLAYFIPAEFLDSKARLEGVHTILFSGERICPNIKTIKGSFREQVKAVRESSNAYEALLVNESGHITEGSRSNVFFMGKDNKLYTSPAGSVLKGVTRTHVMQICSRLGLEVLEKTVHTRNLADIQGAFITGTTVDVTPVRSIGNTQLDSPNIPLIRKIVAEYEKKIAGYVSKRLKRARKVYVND

[2] = molecular target: T1, DtolTA (PLP-dependent transaminase of fold type IV); assay: half-reaction (deamination) kinetics, absorbance at […] nm; kmax/KD^app at pH […]; assay type: biochemical; parameters: gene dat; (His)6-tagged DtolTA
[3] = molecular target: T2, DtolTA (PLP-dependent transaminase of fold type IV) (Desulfobacula toluolica, UniProt K0NPP0, K91A); assay: half-reaction kinetics of variant apoenzyme in the presence of PLP; kmax/KD^app at pH […]; assay type: biochemical
T2 construct: gene dat; (His)6-tagged DtolTA variant

[4] = molecular target: T3, DtolTA (PLP-dependent transaminase of fold type IV) (Desulfobacula toluolica, UniProt K0NPP0, R144I); assay: half-reaction (deamination) kinetics, absorbance at […] nm; kmax/KD^app; assay type: biochemical
T3 construct: gene dat; (His)6-tagged DtolTA variant

[5] = molecular target: T1, DtolTA (PLP-dependent transaminase of fold type IV); assay: crystal structure (9J0V […] Å; also 9J0U […] Å); tyrosine fluorescence quenching titration of apoenzyme; assay type: binding; parameters: gene dat; full length, 286 a.a; (His)6-tagged for Kd, tag removed for crystals
[6] = molecular target: T3, DtolTA (PLP-dependent transaminase of fold type IV); assay: tyrosine fluorescence quenching titration of apoenzyme; assay type: binding
Excerpt: tyrosine fluorescence quenching titration of apoenzyme on DtolTA (PLP-dependent transaminase of fold type IV) | apparent dissociation constant Kd(PLP) for the R144I holoenzyme were similar to those of WT

[7] = molecular target: TA from Haliscomenobacter hydrossis (Haliscomenobacter hydrossis); assay: SEC; gel filtration of the purified enzyme; column and buffer not given

C[C@@H](N)c1ccccc1 [(R)-1-phenylethylamine]
half-reaction (deamination) kinetics, absorbance at 411 nm; kmax/KD^app [1]: 0.015 ± 0.005 M⁻¹ s⁻¹

C[C@@H](N)C(=O)O [D-alanine]
half-reaction (deamination) kinetics, absorbance at 411 nm; kmax/KD^app at pH 8. [2]: 37 ± 1 M^−1s^−1 | half-reaction kinetics of variant apoenzyme in the presence of PLP; kmax/KD^app [3]: 2.4 ± 0.7 M⁻¹ s⁻¹ | half-reaction (deamination) kinetics, absorbance at 411 nm; kmax/KD^app [4]: 29 ± 1 M⁻¹ s⁻¹

N[C@H](CCC(=O)O)C(=O)O [D-glutamate]
half-reaction (deamination) kinetics, absorbance at 411 nm; kmax/KD^app [1]: 0.020 ± 0.001 M⁻¹ s⁻¹

Cc1ncc(COP(=O)(O)O)c(C=O)c1O [pyridoxal-5′-phosphate]
Kd [5]: 30 ± 4 µM | Kd [6]: 43 ± 2 µM

TA from Haliscomenobacter hydrossis (enzyme)
stoichiometry N [7]: 2
